Experimental data taken from patent US12396951B2, “Prevention of local tumor recurrence following surgery using sustainedand/or delayed release of medicaments contained in micro-particles” (UPEXMED CO. LTD., priority 2016, dated 2025).

Assay: In vitro release study of EVE-PLGA microsphere (sample-and-separate method)
Assay type: physicochemical
Conditions: during in vitro release study, release medium pH 7.4, 37° C.
Protocol: The in vitro release study was carried out by a sample-and-separate method. Briefly, 20 mg of microsphere sample (n=3) was taken in a 100 mL flask and dispersed in 50 mL of release medium (0.5% Tween 20 and 0.1% sodium azide in phosphate buffered saline (PBS) at pH 7.4). The flasks were placed in an orbital agitating incubator at 37° C. and shaken at 100 rpm. At certain time points (E10PA53 at 1, 3, 7, 14, 21, 28, 35, 42, 49, 56 days and E10PE77 at 1, 3, 7, 14, 21, 28, 35, 42, 49, 56, 63, 70, 77, 84, 91 days), all medium was collected and filtered on filter paper. The filtered pellet was freeze-dried for 24 h and dissolved in acetonitrile. The content of the unreleased EVE was then analyzed by HPLC as described above. Since EVE was known to be degradable in aqueous solution as a free form in a time-dependent manner, the EVE content was analyzed in the microsphere residue.
The microspheres were also prepared using a membrane with a pore size of 50 μm, which produced microspheres having a diameter size larger than 75 μm. To analyze the release behavior of EVE from the microspheres, an in vitro release study was performed by a sample-and-separate method at physiological conditions. […] The content of EVE was determined in the remaining microsphere after collecting whole samples at certain time points to avoid degradation-related loss of EVE in an aqueous environment.

stability of EVE in the microsphere: no change in the stability
SMILES: CO[C@H]1C[C@@H]2CC[C@@H](C)[C@@](O)(O2)C(=O)C(=O)N2CCCC[C@H]2C(=O)O[C@H]([C@H](C)C[C@@H]2CC[C@@H](OCCO)[C@H](OC)C2)CC(=O)[C@H](C)/C=C(\C)[C@@H](O)[C@@H](OC)C(=O)[C@H](C)C[C@H](C)/C=C/C=C/C=C/1C [EVE, everolimus]
